Laboratory results reported in patent US20260022114A1, “N-(5-SUBSTITUTED-[(1,3,4-THIADIAZOLYL) OR (1,3-THIAZOLYL)](SUBSTITUTED)CARBOXAMIDE COMPOUNDS, PHARMACEUTICAL COMPOSITIONS, AND METHODS OF PREPARING THE AMIDE COMPOUNDS AND OF THEIR USE” (Repare Therapeutics Inc., priority 2022, published 2026).

Biological target: PolQ ATPase enzyme (1-894) (Homo sapiens (Human), UniProt O75417)
Assay: Polθ ATPase enzymatic assay (0.5 nM enzyme concentration), ADP-Glo
Type: biochemical
Details: 0.5 nM PolQ ATPase enzyme (1-894); average IC50
Procedure: PolQ ATPase enzyme (1-894) at 0.5 nM is incubated with a 10-point concentration response of inhibitors for 15 min at rt in the following buffer: 50 mM Tris Cl pH 7.5, 10% glycerol, 5 mM DTT, 10 mM MgCl2, 0.1 mg/ml BSA. Following pre-incubation with inhibitors, DNA (Fork C) at 20 nM and ATP at 100 μM are added to start the reaction. Enzymatic reaction proceeds at rt for 180 min. ATP consumption is measured using the ADP-Glo assay from Promega. Luminescence is read on the Envision and IC50 are determined using the variable slope 4-parameters equation.
Oligos are annealed by heating at 95° C. for 5 min in the following buffer (10 mM Tris-HCl PH7.5, 50 mM NaCl, 1 mM EDTA) and cooled to rt. […]

Sequence of PolQ ATPase enzyme (1-894) (O75417 1-894): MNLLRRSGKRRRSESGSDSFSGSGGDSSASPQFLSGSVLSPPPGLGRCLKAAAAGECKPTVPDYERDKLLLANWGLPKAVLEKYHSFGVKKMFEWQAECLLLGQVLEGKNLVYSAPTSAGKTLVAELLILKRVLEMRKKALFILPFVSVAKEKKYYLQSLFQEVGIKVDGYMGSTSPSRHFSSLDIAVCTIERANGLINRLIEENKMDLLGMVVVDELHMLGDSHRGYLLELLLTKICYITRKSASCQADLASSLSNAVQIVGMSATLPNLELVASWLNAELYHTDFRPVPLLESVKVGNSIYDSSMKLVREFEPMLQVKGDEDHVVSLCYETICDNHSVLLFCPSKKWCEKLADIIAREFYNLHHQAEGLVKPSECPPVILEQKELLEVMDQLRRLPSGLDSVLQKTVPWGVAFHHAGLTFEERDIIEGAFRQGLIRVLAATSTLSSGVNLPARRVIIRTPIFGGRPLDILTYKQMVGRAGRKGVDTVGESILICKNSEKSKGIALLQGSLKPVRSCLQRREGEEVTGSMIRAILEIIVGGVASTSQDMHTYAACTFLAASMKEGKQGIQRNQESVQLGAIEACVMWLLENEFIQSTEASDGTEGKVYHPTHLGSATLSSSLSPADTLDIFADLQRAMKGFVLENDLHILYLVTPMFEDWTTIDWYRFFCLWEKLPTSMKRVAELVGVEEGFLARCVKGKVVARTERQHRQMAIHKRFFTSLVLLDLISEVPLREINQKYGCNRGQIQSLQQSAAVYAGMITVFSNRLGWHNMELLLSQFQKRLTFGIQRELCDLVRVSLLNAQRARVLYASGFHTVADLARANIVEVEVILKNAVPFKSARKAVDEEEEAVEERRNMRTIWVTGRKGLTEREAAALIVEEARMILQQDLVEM

Structure (SMILES)	IC50 [nM]
C#C[C@H]1CC1c1nnc(NC(=O)c2cnc(N3CCOC4(CC4)C3=O)cc2-c2cc(C(F)F)ncc2OC)s1 (single isomer, unassigned) [Compound 588]	0.75
COc1cnc(C(F)F)cc1-c1cc(-n2ccc(C#N)cc2=O)ncc1C(=O)Nc1nnc(C#CC2CC2)s1 [Compound 493]	< 0.25
COc1cnc(C(F)F)cc1-c1cc(-n2ccc(C)cc2=O)ncc1C(=O)Nc1nnc([C@H]2C[C@@H]2c2ccc(C#N)cc2)s1 [Compound 563]	< 0.25
COC(=O)C1CCN(c2cc(-c3cc(C(F)F)ncc3OC)c(C(=O)Nc3nnc(C#CC4CC4)s3)cn2)C(=O)C1 (centres unmarked) [Compound 497]	0.45
COc1cnc(C(F)F)cc1-c1cc(-c2ccc(C)cc2)ncc1C(=O)Nc1nnc(C#CC2CC2)s1 [Compound 513]	3.2
COc1cnc(C(F)F)cc1-c1cc(-c2ccn(C)c(=O)c2)ncc1C(=O)Nc1nnc(C#CC2CC2)s1 [Compound 519]	12
CCOC(=O)N1CCN(c2cc(-c3cc(C(F)F)ncc3OC)c(C(=O)Nc3nnc(C#CC4CC4)s3)cn2)C(=O)C12CC2 [Compound 564]	0.38
COc1cnc(C(F)F)cc1-c1cc(-n2ccc(C)cc2=O)ncc1C(=O)Nc1nnc([C@H]2C[C@@H]2F)s1 [Compound 544]	1.9
COc1cnc(C(F)F)cc1-c1cc(-n2ccc(C)cc2=O)ncc1C(=O)Nc1nnc([C@H]2C[C@@H]2c2ccn(C)n2)s1 (racemic) [Compound 583, 2″-(difluoromethyl)-5″-methoxy-4-methyl-N-(5-((1S,2S)-2-(1-methyl-1H-pyrazol-3-yl)cyclopropyl)-1,3,4-thiadiazol-2-yl)-2-oxo-2H-[1,2′:4′,4″-terpyridine]-5′-carboxamide]	< 0.25
COc1cnc(C(F)F)cc1-c1cc(N2CC3CC(C3)C2=O)ncc1C(=O)Nc1nnc(C#CC2CC2)s1 (racemic) [Compound 381]	< 0.25
COc1cnc(C(F)F)cc1-c1cc(C#CCNCC(F)(F)F)ncc1C(=O)Nc1nnc(C#CC2CC2)s1 [Compound 558]	< 0.25
COc1cnc(C(F)F)cc1-c1cc(-c2ccc[nH]c2=O)ncc1C(=O)Nc1nnc(C#CC2CC2)s1 [Compound 484]	0.32
COc1cnc(C(F)F)cc1-c1cc(N2CCN(CC(F)(F)F)C3(CC3)C2=O)ncc1C(=O)Nc1nnc(C#CC2CC2)s1 [Compound 515]	2.7
COc1cnc(C(F)F)cc1-c1cc(N2CCC(C(C)(C)C)CC2=O)ncc1C(=O)Nc1nnc(C#CC2CC2)s1 (racemic) [Compound 444]	< 0.25
COc1cnc(C(F)F)cc1-c1cc(-n2ccncc2=O)ncc1C(=O)Nc1nnc(C#CC2CC2)s1 [Compound 531]	0.27
COc1cnc(C(F)F)cc1-c1cc(-n2ccc(N)cc2=O)ncc1C(=O)Nc1nnc(C#CC2CC2)s1 [Compound 488]	< 0.25

Further lines, results first:

IC50 [nM]	Structure (SMILES)
0.3	C#C[C@H]1C[C@@H]1c1nnc(NC(=O)c2cnc(-n3ccc(N4CC5(COC5)C4)cc3=O)cc2-c2cc(C(F)F)ncc2OC)s1 [Compound 627]
3.5	C#C[C@H]1C[C@@H]1c1nnc(NC(=O)c2cnc(-n3ccc(OC4CCN(C)C4)cc3=O)cc2-c2cc(C(F)F)ncc2OC)s1 (single isomer, unassigned) [Compound 626]
3.6	C=C1CC(c2nnc(NC(=O)c3cnc(-n4ccc(C)cc4=O)cc3-c3cc(C(F)F)ncc3OC)s2)C1 [Compound 597]
9.9	C#C[C@@H]1CC1c1nnc(NC(=O)c2cnc(-n3ccc(C)cc3=O)cc2-c2cc(C(F)F)ncc2OC)s1 (mixture of isomers) [Compound 593]
4	COc1cnc(C(F)F)cc1-c1cc(-n2ccc(C)cc2=O)ncc1C(=O)Nc1nnc(C2CC2(F)Cl)s1 (racemic) [Compound 605]
0.4	COc1cnc(C(F)F)cc1-c1cc(-n2ccc(N(C)C3COC3)cc2=O)ncc1C(=O)Nc1nnc(C#CC2CC2)s1 [Compound 614]
0.85	COc1cnc(C(F)F)cc1-c1cc(-n2ccc(OC3CCN(C)C3)cc2=O)ncc1C(=O)Nc1nnc(C#CC2CC2)s1 (racemic) [Compound 612]
